We go through 24 molecules from patent publication US7511145B2 (Genelabs Technologies, Inc., priority 2003, dated 2009).

For the assay, the target named is T1, HCV-NS5b (Hepatitis C virus genotype 1b, UniProt Q9WMX2).
T1 construct: (His)6 (C); made in house; host or cells: XL-1 cells (E. coli), IPTG-inducible plasmid, nickel-NTA purification
The experiment in a line: HCV-NS5b enzyme assay (incorporation of radiolabeled UTP). Format: biochemical. To be noted: for inhibition at 33 µM: enzyme inhibition at compound concentration of 33 uM; for inhibition at 100 µM: read-out: % inh@100, enzyme inhibition at compound concentration of 100 uM. An excerpt: The coding sequence of NS5b protein was cloned by PCR from pFKI389luc/NS3-3′/ET as described by Lohmann, V., et al. (1999) Science 285, 110-113 using the following primers: […]
The cloned fragment was missing the C terminus 21 amino acid residues. The cloned fragment was inserted into an IPTG-inducible expression plasmid that provided an epitope tag (His)6 at the carboxy terminus of the protein.
The recombinant enzyme was expressed in XL-1 cells and after induction of expression, the protein was purified using affinity chromatography on a nickel-NTA column. Storage condition was 10 mM Tris-HCl pH 7.5, 50 mM NaCl, 0.1 mM EDTA, 1 mM DTT, 20% glycerol at −20° C.
The polymerase activity was assayed by measuring incorporation of radiolabeled UTP into a RNA product using a biotinylated, heteropolymeric template, which included a portion of the HCV genome. Typically, the assay mixture (50 μL) contained 10 mM Tris-HCl (pH 7.5), 5 mM MgCl2, 0.2 mM EDTA, 10 mM KCl, 1 unit/μL RNAsin, 1 mM DTT, 10 μM each of NTP, including [^3H]-UTP, and 10 ng/μL heteropolymeric template. Test compounds were initially dissolved in 100% DMSO and further diluted in aqueous buffer containing 5% DMSO. Typically, compounds were tested at concentrations between 1 nM and 100 μM. Reactions were started with addition of enzyme and allowed to continue at 37° C. for 2 hours. Reactions were quenched with 8 μL of 100 mM EDTA and reaction mixtures (30 μL) were transferred to streptavidin-coated scintillation proximity microtiter plates (FlashPlates) and incubated at 4° C. overnight. Incorporation of radioactivity was determined by scintillation counting.
Shown in Table IX below are the values for enzyme inhibition measured at compound concentrations of 100 and 33 uM, (% inh@[…] and % inh@33, respectively). The percent inhibition values are calculated from the differential incorporation of radioactivity compared to a control reaction without compound: % inhibition=100−[(CountsINH−CountsBKG)/CountsCTRL−CountsBKG)×100 where CountsINH is the signal of the testwell with inhibitor, CountsBKG is the background signal and CountsCTRL is the signal of a testwell without inhibitor.

`COc1ccc(-c2ccc(F)c(Cl)c2)c(-c2ccc3cc(-c4nc5cc(C(=O)O)ccc5n4C4CCCCC4)ccc3n2)c1` [Compound 366, 2-[2-(3′-chloro-4′-fluoro-4-methoxy-biphen-2-yl)-quinolin-6-yl]-1-cyclohexyl-1H-benzoimidazole-5-carboxylic acid]: the inhibition at 33 µM was found to be 97.6% and the inhibition at 100 µM was determined as 99.4%.
With `COc1ccc(-c2cccc(C)c2)c(-c2ccc3cc(-c4nc5cc(C(=O)O)ccc5n4C4CCCCC4)ccc3n2)c1` [Compound 367, 1-cyclohexyl-2-[2-(4-methoxy-3′-methyl-biphen-2-yl)-quinolin-6-yl]-1H-benzoimidazole-5-carboxylic acid], the inhibition at 33 µM turned out to be 103% and the inhibition at 100 µM stood at 101%.
Consider `NC(=O)[C@H](Cc1cnc[nH]1)NC(=O)c1ccc2cc(-c3nc4cc(C(=O)O)ccc4n3C3CCCCC3)ccc2n1` [Compound 368], for which the inhibition at 33 µM stood at 51.2% and the inhibition at 100 µM came out at 79.5%.
For the molecule `O=C(O)c1ccc2c(c1)nc(-c1ccc3nc(-c4ccccc4-c4ccncc4)ccc3c1)n2C1CCCCC1` [Compound 369, 1-Cyclohexyl-2-[2-(2-pyrid-4-yl-phenyl)-quinolin-6-yl]-1H-benzoimidazole-5-carboxylic acid], the inhibition at 33 µM turned out to be 96.2% and the inhibition at 100 µM stood at 98.8%.
`O=C(O)c1ccc2c(c1)nc(-c1ccc3nc(-c4cccc(C(=O)N5CCCC5)c4)ccc3c1)n2C1CCCCC1` [Compound 370, 1-Cyclohexyl-2-{2-[3-(pyrrolidine-1-carbonyl)-phenyl]-quinolin-6-yl}-1H-benzoimidazole-5-carboxylic acid]: the inhibition at 33 µM came out at 97.8% and the inhibition at 100 µM was determined as 99.7%.
Regarding `Nc1ccc(-c2ccc3cc(-c4nc5cc(C(=O)O)ccc5n4C4CCCCC4)ccc3n2)cc1Br` [Compound 372, 2-[2-(4-amino-3-bromo-phenyl)-quinolin-6-yl]-1-cyclohexyl-1H-benzoimidazole-5-carboxylic acid], the inhibition at 33 µM came out at 98.1% and the inhibition at 100 µM worked out at 98.2%.
Turning to `O=C(O)c1ccc2c(c1)nc(-c1ccc3[nH]c(-c4ccccc4)cc(=O)c3c1)n2C1CCCCC1` [Compound 373, 1-cyclohexyl-2-(4-oxo-2-phenyl-1,4-dihydro-quinolin-6-yl)-1H-benzoimidazole-5-carboxylic acid], the inhibition at 33 µM stood at 39.9% and the inhibition at 100 µM amounted to 83.8%.
As for `NC(=O)c1cc(-c2ccc3cc(-c4nc5cc(C(=O)O)ccc5n4C4CCCCC4)ccc3n2)ccc1O` [Compound 374, 2-[2-(3-carbamoyl-4-hydroxy-phenyl)-quinolin-6-yl]-1-cyclohexyl-1H-benzoimidazole-5-carboxylic acid], the inhibition at 33 µM worked out at 97.6% and the inhibition at 100 µM came out at 98.3%.
On to `O=C(O)c1ccc2c(c1)nc(-c1ccc3nc(-c4cc(OCC(=O)N5CCCC5)ccc4-c4ccc(Cl)cc4)ccc3c1)n2C1CCCCC1` [Compound 376, 2-{2-[4′-Chloro-4-(2-oxo-2-pyrrolidin-1-yl-ethoxy)-biphen-2-yl]-quinolin-6-yl}-1-cyclohexyl-1H-benzoimidazole-5-carboxylic acid], for which the inhibition at 33 µM is 97.4% and the inhibition at 100 µM worked out at 97.2%.
The matching figures for `NC(=O)CNC(=O)c1ccc(-c2ccccc2)c(-c2ccc3cc(-c4nc5cc(C(=O)O)ccc5n4C4CCCCC4)ccc3n2)c1` [Compound 377, 2-{2-[4-(Carbamoylmethyl-carbamoyl)-biphen-2-yl]-quinolin-6-yl}-1-cyclohexyl-1H-benzoimidazole-5-carboxylic acid]: 99.2% and 99.4%.
For the molecule `CNC(=O)c1ccc(-c2ccc(Cl)cc2)c(-c2ccc3cc(-c4nc5cc(C(=O)O)ccc5n4C4CCCCC4)ccc3n2)c1` [Compound 378, 2-[2-(4′-chloro-4-methylcarbamoyl-biphen-2-yl)-quinolin-6-yl]-1-cyclohexyl-1H-benzoimidazole-5-carboxylic acid], the inhibition at 33 µM stood at 100% and the inhibition at 100 µM is 101%.
On to `Cc1cc(-c2nc3cc(C(=O)O)ccc3n2C2CCCCC2)cc2ccc(-c3ccccc3-c3ccccc3)nc12` [Compound 379, 2-(2-Biphen-2-yl-8-methyl-quinolin-6-yl)-1-cyclohexyl-1H-benzoimidazole-5-carboxylic acid], for which the inhibition at 33 µM turned out to be 93.3% and the inhibition at 100 µM was 97.8%.
The like results for `O=C(O)c1ccc2c(c1)nc(-c1ccc3nc(-c4ccccc4)cc(Nc4ccc(Cl)cc4)c3c1)n2C1CCCCC1` [Compound 380, 2-[4-(4-chloro-phenylamino)-2-phenyl-quinolin-6-yl]-1-cyclohexyl-1H-benzoimidazole-5-carboxylic acid] were, in that order, 97.6% and 101%.
Consider `O=C(O)c1ccc2c(c1)nc(-c1ccc3nc(-c4cc(O)cc(O)c4)ccc3c1)n2C1CCCCC1` [Compound 381, 1-cyclohexyl-2-[2-(3,5-dihydroxy-phenyl)-quinolin-6-yl]-1H-benzoimidazole-5-carboxylic acid], for which the inhibition at 33 µM stood at 94.3% and the inhibition at 100 µM came to 98%.
The like results for `COc1ccc(-c2ccc(C(N)=O)cc2)c(-c2ccc3cc(-c4nc5cc(C(=O)O)ccc5n4C4CCCCC4)ccc3n2)c1` [Compound 382, 2-[2-(4′-carbamoyl-4-methoxy-biphen-2-yl)-quinolin-6-yl]-1-cyclohexyl-1H-benzoimidazole-5-carboxylic acid] were, in that order, 101% and 101%.
The matching figures for `COc1ccc(-c2ccc(CN)cc2)c(-c2ccc3cc(-c4nc5cc(C(=O)O)ccc5n4C4CCCCC4)ccc3n2)c1` [Compound 384, 2-[2-(4′-aminomethyl-4-methoxy-biphen-2-yl)-quinolin-6-yl]-1-cyclohexyl-1H-benzoimidazole-5-carboxylic acid]: 95.5% and 99.3%.
`NC(=O)[C@H](CO)NC(=O)c1ccc2cc(-c3nc4cc(C(=O)O)ccc4n3C3CCCCC3)ccc2n1` [Compound 385, 2-[2-(1-Carbamoyl-2-hydroxyethylcarbamoyl)quinolin-6-yl]-1-cyclohexyl-1H-benzimidazole-5-carboxylic acid]: the inhibition at 33 µM was determined as 42.6% and the inhibition at 100 µM was 76.2%.
For the molecule `O=C(O)c1ccc2c(c1)nc(-c1ccc3nc(-c4ccccc4)c(-c4ccccc4)cc3c1)n2C1CCCCC1` [Compound 386, 1-cyclohexyl-2-(2,3-diphenyl-quinolin-6-yl)-1H-benzoimidazole-5-carboxylic acid], the inhibition at 33 µM amounted to 100% and the inhibition at 100 µM is 99.9%.
In the case of `O=C(O)c1ccc2c(c1)nc(-c1ccc3nc(-c4ccccc4-c4ccc(Cl)cc4)ccc3c1)n2C1CCCCC1` [Compound 387, 2-[2-(4′-Chloro-biphen-2-yl)-quinolin-6-yl]-1-cyclohexyl-1H-benzoimidazole-5-carboxylic acid], the inhibition at 33 µM was determined as 99% and the inhibition at 100 µM came out at 98.7%.
The like results for `O=C(O)c1ccc2c(c1)nc(-c1cc3ccc(-c4ccccc4-c4ccccc4)nc3cc1F)n2C1CCCCC1` [Compound 388, 2-(2-Biphen-2-yl-7-fluoro-quinolin-6-yl)-1-cyclohexyl-1H-benzoimidazole-5-carboxylic acid] were, in that order, 98.7% and 98.6%.
On to `Cc1ccc(-c2nc3ccc(-c4nc5cc(C(=O)O)ccc5n4C4CCCCC4)cc3nc2-c2ccc(C)cc2)cc1` [Compound 389, 1-Cyclohexyl-2-(2,3-di-p-tolylquinoxalin-6-yl)-1H-benzimidazole-5-carboxylic acid], for which the inhibition at 33 µM came out at 99.9% and the inhibition at 100 µM was 99.5%.
Take `O=C(O)c1ccc2c(c1)nc(-c1ccc3nc(-c4ccc(-c5ccccc5)cc4)ccc3c1)n2C1CCCCC1` [Compound 390, 2-(2-biphenyl-4-yl-quinolin-6-yl)-1-cyclohexyl-1H-benzoimidazole-5-carboxylic acid]: the inhibition at 33 µM amounted to 79.9% and the inhibition at 100 µM turned out to be 92.5%.
The matching figures for `Cc1nc(N)sc1-c1ccc2cc(-c3nc4cc(C(=O)O)ccc4n3C3CCCCC3)ccc2n1` [Compound 391]: 94.1% and 97.5%.
`O=C(O)c1ccc2c(c1)nc(-c1ccc3nc(CCCO)ccc3c1)n2C1CCCCC1` [Compound 392, 1-Cyclohexyl-2-[2-(3-hydroxy-propyl)-quinolin-6-yl]-1H-benzoimidazole-5-carboxylic acid]: the inhibition at 33 µM is 83.8% and the inhibition at 100 µM turned out to be 93.5%.
